Target: T1, tissue-nonspecific alkaline phosphatase (TNAP) (Homo sapiens, UniProt P05186)
T1 sequence (P05186 18-502 limits assumed): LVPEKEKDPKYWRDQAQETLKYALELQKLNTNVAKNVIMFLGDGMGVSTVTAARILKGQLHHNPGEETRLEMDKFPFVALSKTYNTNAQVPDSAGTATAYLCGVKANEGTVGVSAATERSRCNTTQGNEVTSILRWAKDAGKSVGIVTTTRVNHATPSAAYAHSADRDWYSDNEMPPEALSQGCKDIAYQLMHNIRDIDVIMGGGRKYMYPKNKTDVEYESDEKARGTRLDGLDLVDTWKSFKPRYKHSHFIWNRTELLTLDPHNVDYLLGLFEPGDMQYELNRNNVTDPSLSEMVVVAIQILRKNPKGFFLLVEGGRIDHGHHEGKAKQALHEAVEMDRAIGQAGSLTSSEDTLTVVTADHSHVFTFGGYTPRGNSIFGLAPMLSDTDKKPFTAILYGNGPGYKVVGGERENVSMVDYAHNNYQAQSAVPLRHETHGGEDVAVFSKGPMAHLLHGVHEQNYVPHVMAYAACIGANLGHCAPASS
Test: TNAP luminescence-based inhibition assay
Type: biochemical

selectivity for TNAP (versus PLAP and GAPDH)	times more potent against TNAP (versus screening hit 1)	improvement in potency (4 versus tricyclic derivative 3)	Structure (SMILES)
at least 2000 fold	approximately 200 times	–	O=C(NCCO)c1cc(-c2ccc(Cl)c(Cl)c2Cl)n[nH]1 [Compound 9v]
–	–	3 fold	O=C(c1[nH]nc2c1COc1ccccc1-2)N1CCCC1 [Compound 4]

Reference: article PMC2752324 (Bioorganic & medicinal chemistry letters, 2008)
